Reference: PubChem BioAssay AID2060328 (Molecular Pharmacology Branch, DTP, NCI, 2025)
Where “and” joins values, the source holds several entries; their conditions need not be identical. Equal values may be shown once.

Test system: MDA-MB-231 multicell spheroids, viability (%T/C)
Assay: Anticancer human tumor MDA-MB-231 cell line growth inhibition [IpAb];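 also: viability read after seven days of drug exposure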;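 as to viability, T/C: 100% = DMSO vehicle control viability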
Conditions: for viability, T/C: stronger effect = lower value
Description: Combinatorial screen of targeted agents with ipatasertib and abemaciclib in multi-cell type tumor spheroids
A high-throughput screen of multi-cell type tumor spheroids was designed to identify active combinations of targeted small molecules and ipatasertib or abemaciclib. Complex spheroids include a stromal component modeled by human endothelial cells (HUVEC) and fibroblasts modeled by human mesenchymal stem cells (MSCs). The concentration ranges selected for each drug and investigational agent were based upon clinically achievable concentrations if the clinical Cmax of the agent was known.
Compounds. The drugs and investigational agents: ipatasertib (NSC767898), abemaciclib(NSC768073), selumetinib (NSC741078), trametinib (758246), adavosertib (NSC754352), everolimus (NSC733504), sapanisertib (NSC764658), vemurafenib (NSC761431), venetoclax (NSC766270), copanlisib (NSC809693), apelisib (NSC765974), palbociblib (NSC758247), vemurafenib (NSC761431), dabrafenib (NSC764134), ravoxertinib (NSC781343), BMS-387032 (NSC767048), sotorasib (NSC818433), talazoparib (NSC767125) and afursertib (NSC778305), were obtained from the National Cancer Institute (NCI) Developmental Therapeutics Program Chemical Repository. The FDA-approved anticancer drug set is available from the NCI Developmental Therapeutics Program. […] The stock solutions were prepared in dimethyl sulfoxide (DMSO, Sigma-Aldrich, St. Louis, MO, cat. D2650) at 800-fold the tested concentration and stored at -70 degrees C prior to their use. All drugs and investigational agents were tested over a range starting from a high concentration at or near the clinical Cmax and decreasing in half-log increments. If the clinical Cmax for an agent had not been determined, the highest concentration tested was 10 microM.
NCI60 Cell Culture. NCI60 cell lines were obtained from the NCI Developmental Therapeutics Program Tumor Repository. For each lot of cells, the Repository performed Applied Biosystems AmpFLSTR Identifiler testing with PCR amplification to confirm consistency with the published Identifier STR profile for each cell line. Cells were kept in continuous culture for no more than 20 passages. The optimal seeding densities for each of the cell lines at each time point assessed were determined prior to performing the concentration response studies. Briefly, the NCI60 human tumor lines were grown as monolayers in RPMI 1640 medium supplemented with 10% FBS and 2 mmol/L L-glutamine.
An additional 9 lines were from the NCI60 cell line panel including MDA-MB-231 breast carcinoma, MDA-MB-468 breast carcinoma, MCF7 breast carcinoma, Hs578T breast carcinoma, MALME-3M melanoma, SK-MEL-2 melanoma, SK-OV-3 ovarian carcinoma, DU-145 prostate carcinoma, PC-3 prostate carcinoma, all cell lines along with major genetic alterations are listed on Table 2. Pooled donor human umbilical vein endothelial cells (HUVEC, Lonza, cat. CC-2519) and human mesenchymal stem cells (hMSC, Lonza, cat. PT-2501) were purchased from Lonza (Walkersville, MD).
PDMR cell lines were grown in complete medium (DC medium): Dulbecco's modified Eagle's medium (DMEM)/F12 supplemented with 5% fetal bovine serum (FBS), 2 mM L-glutamine, 100 U/mL penicillin and 100 µg/ml streptomycin, 0.4 µg/ml hydrocortisone, 10 ng/ml epidermal growth factor (EGF) recombinant human protein, 24 µg/mL adenine, and 0.1 mg/mL primocin. During culture from frozen stock vials, PDMR cells were cultured in the same medium containing 10 µM Y-27632 (see Table 3). The PDCs were cultured in complete DMEM/F12 media without 10 microM Y-27632 dihydrochloride for at least two passages prior to the screen. The pooled donor HUVEC and hMSC were cultured in endothelial cell growth medium 2 (PromoCell, Heidelberg, Germany, cat. C-22011) and mesenchymal stem cell growth medium 2 (PromoCell, cat. C-28009), respectively. For all experiments, HUVEC and hMSC were used at passages </=5.
[…]

| IC50 (curve of compound) | SMILES | viability, T/C (compound 0.0316 µM) | viability, T/C (compound 0.1 µM) | viability, T/C (compound 0.316 µM) | viability, T/C (compound 1 µM) | viability, T/C (compound 3.16 µM) | viability, T/C (compound 10 µM) | viability, T/C (compound 0.01 µM) | further results |
| --- | --- | --- | --- | --- | --- | --- | --- | --- | --- |
| > 10000 nM | C=CC(=O)N1CCN(c2nc(=O)n(-c3c(C)ccnc3C(C)C)c3nc(-c4c(O)cccc4F)c(F)cc23)C(C)C1 (configuration not stated) | 106% and 110% | 111% and 109% | 109% and 117% | 124% and 140% | 122% and 126% | 82% and 84.4% |  |  |
| 221 nM and 246 nM | C=CCn1c(=O)c2cnc(Nc3ccc(N4CCN(C)CC4)cc3)nc2n1-c1cccc(C(C)(C)O)n1 | 99.7% and 119% | 84.6% and 96.2% | 34.6% and 37.5% | 18.5% and 17.7% | 16.1% and 15.1% | 21.8% and 20.7% |  |  |
| 56.4 nM and 70.1 nM | CC(=O)c1c(C)c2cnc(Nc3ccc(N4CCNCC4)cn3)nc2n(C2CCCC2)c1=O |  |  |  |  |  |  |  | viability, T/C (compound 0.000949 µM): 103% and 105%; viability, T/C (compound 0.003 µM): 88.5% and 88.2%; viability, T/C (compound 0.00949 µM): 74% and 79.3%; viability, T/C (compound 0.03 µM): 57.7% and 57.8%; viability, T/C (compound 0.0949 µM): 42.3% and 46%; viability, T/C (compound 0.3 µM): 38.7% and 38.9% |
| 184 nM and 175 nM | CC(C)(C)c1cnc(CSc2cnc(NC(=O)C3CCNCC3)s2)o1 |  |  |  |  |  |  |  | viability, T/C (compound 0.00949 µM): 109%; viability, T/C (compound 0.03 µM): 118% and 115%; viability, T/C (compound 0.0949 µM): 120% and 105%; viability, T/C (compound 0.3 µM): 1.96% and 1.34%; viability, T/C (compound 0.949 µM): 1.07% and 1.11%; viability, T/C (compound 3 µM): 0.92% and 1.78% |
|  | CC(C)NCC(C(=O)N1CCN(c2ncnc3c2C(C)CC3O)CC1)c1ccc(Cl)cc1 (configuration not stated) |  | 95.4% [middle of 13 runs] | 84.7% [middle of 13 runs] | 70.5% [middle of 13 runs] | 54.9% [middle of 13 runs] | 39.5% [middle of 13 runs] |  | IC50 (compound alone, run of 06/01/2021): 4.43 µM [middle of 13 runs] |
| 23.8 nM and 8.68 nM | CC(C)n1nc(-c2ccc3oc(N)nc3c2)c2c(N)ncnc21 | 46.5% and 41.5% | 43.5% and 37.4% |  |  |  |  | 57.6% and 49.4% | viability, T/C (compound 0.000316 µM): 97.7% and 101%; viability, T/C (compound 0.001 µM): 86.1% and 104%; viability, T/C (compound 0.00316 µM): 72.2% and 72.1% |
| 5570 nM and 5910 nM | CC1(C)CCC(CN2CCN(c3ccc(C(=O)NS(=O)(=O)c4ccc(NCC5CCOCC5)c([N+](=O)[O-])c4)c(Oc4cnc5[nH]ccc5c4)c3)CC2)=C(c2ccc(Cl)cc2)C1 | 104% and 106% | 105% and 104% | 103% and 105% | 98.5% and 103% | 88.7% and 99.5% | 10.3% and 8.49% |  |  |
| 9000 nM and 7630 nM | CCCS(=O)(=O)Nc1ccc(F)c(C(=O)c2c[nH]c3ncc(-c4ccc(Cl)cc4)cc23)c1F | 112% and 109% | 111% and 109% | 106% and 112% | 100% and 104% | 80.9% and 79.1% | 46.6% and 41.1% |  |  |
|  | CCN1CCN(Cc2ccc(Nc3ncc(F)c(-c4cc(F)c5nc(C)n(C(C)C)c5c4)n3)nc2)CC1 | 74.8% [middle of 13 runs] | 58.9% [middle of 13 runs] | 46.5% [middle of 13 runs] | 48.8% [middle of 13 runs] |  |  | 88.6% [middle of 13 runs] |  |
| 50.1 nM and 39.5 nM | COc1c(OCCCN2CCOCC2)ccc2c3n(c(=NC(=O)c4cnc(N)nc4)nc12)CCN3 | 55.8% and 53.5% | 43.3% and 42% | 34.1% and 33.4% | 37.6% and 40.3% |  |  | 70.3% and 69.2% | viability, T/C (compound 0.00316 µM): 84% and 88.5% |
